Source: patent publication US10758534B2 (Vertex Pharmaceuticals Incorporated, priority 2014, dated 2020)

Molecular target: T1, F508del (Homo sapiens, UniProt P13569, DEL508-508)
T1 construct: expressed in transfected cells
Experiment: Protocol 1: membrane potential optical assay (FLIPR III, voltage sensing dye), identification of potentiator compounds
Format: cell-based
Settings: Table 3, compounds of Table 1
How it was run: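 NIH 3T3 fibroblasts stably expressing F508del were cultured at 27° C for 24 hrs for temperature correction, then treated with compounds or DMSO and loaded with a voltage-sensing redistribution dye. Forskolin added with a Cl⁻ gradient activated the channel; membrane-potential fluorescence on FLIPR III reported increased gating.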

T1 sequence (P13569 with tags, fused parts or gaps DEL508-508): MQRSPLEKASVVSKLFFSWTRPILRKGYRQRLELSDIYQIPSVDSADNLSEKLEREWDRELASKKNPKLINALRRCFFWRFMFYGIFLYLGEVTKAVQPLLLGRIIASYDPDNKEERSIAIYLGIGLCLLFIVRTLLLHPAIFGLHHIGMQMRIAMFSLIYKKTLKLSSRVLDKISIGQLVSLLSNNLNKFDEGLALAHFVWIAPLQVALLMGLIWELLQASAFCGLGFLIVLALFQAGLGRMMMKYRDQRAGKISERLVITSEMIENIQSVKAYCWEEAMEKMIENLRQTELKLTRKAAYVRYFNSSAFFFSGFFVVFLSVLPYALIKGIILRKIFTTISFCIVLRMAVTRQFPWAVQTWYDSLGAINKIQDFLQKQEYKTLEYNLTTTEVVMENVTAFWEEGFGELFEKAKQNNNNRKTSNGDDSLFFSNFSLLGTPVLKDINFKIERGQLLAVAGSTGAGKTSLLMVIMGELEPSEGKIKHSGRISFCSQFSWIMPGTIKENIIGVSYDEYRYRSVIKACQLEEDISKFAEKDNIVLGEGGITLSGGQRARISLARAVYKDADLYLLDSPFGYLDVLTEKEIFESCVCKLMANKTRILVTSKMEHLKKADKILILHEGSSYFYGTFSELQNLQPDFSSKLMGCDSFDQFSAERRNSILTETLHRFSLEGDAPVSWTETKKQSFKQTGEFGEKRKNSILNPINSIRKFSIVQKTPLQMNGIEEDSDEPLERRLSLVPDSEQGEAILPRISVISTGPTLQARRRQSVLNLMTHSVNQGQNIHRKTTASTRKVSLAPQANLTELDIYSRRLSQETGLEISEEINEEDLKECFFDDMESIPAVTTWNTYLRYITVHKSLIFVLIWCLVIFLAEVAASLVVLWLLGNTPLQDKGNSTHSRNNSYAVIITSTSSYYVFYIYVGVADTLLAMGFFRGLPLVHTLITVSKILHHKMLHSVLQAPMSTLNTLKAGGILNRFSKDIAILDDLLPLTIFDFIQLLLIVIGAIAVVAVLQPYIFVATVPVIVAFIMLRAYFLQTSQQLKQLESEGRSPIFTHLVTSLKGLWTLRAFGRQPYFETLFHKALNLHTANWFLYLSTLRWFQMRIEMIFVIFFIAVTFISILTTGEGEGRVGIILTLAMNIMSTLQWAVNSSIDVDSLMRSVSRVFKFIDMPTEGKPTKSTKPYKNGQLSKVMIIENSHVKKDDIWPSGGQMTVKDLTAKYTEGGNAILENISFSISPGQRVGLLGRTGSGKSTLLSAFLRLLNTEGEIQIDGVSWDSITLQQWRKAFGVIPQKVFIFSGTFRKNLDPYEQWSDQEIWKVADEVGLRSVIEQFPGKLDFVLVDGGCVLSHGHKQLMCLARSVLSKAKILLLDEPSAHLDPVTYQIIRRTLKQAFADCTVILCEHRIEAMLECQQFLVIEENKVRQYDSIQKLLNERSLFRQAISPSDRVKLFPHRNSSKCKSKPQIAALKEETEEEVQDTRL

| Compound | EC30 |
| --- | --- |
| C[C@@H]1CN(c2ncccc2C(=O)NS(=O)(=O)c2cccc(N)n2)C(C)(C)C1 [Compound 946, N-[(6-amino-2-pyridyl)sulfonyl]-2-[(4S)-2,2,4-trimethylpyrrolidin-1-yl]pyridine-3-carboxamide] | ++ (“++” means between 3 uM and 10 uM) |
| Cc1cc(C)c(Oc2nc(C(C)(C)C)ccc2C(=O)NS(=O)(=O)c2cccc(NCCN(C)C)n2)c(C)c1 [Compound 947, 6-tert-butyl-N-[[6-(2-dimethylaminoethylamino)-2-pyridyl]sulfonyl]-2-(2,4,6-trimethylphenoxy)pyridine-3-carboxamide] | +++ (“+++” means <3 uM) |
| COc1cccc(S(=O)(=O)NC(=O)C2Cc3ccccc3CCN2Cc2c(C)cc(C)cc2C)n1 (stereo not drawn) [Compound 948, N-[(6-methoxy-2-pyridyl)sulfonyl]-3-[(2,4,6-trimethylphenyl)methyl]-1,2,4,5-tetrahydro-3-benzazepine-4-carboxamide] | +++ (“+++” means <3 uM) |
| CC(C)COc1cc(F)cc(-c2ccc(C(=O)NS(=O)(=O)c3ccn[nH]3)c(N3CCC(C)(C)C3C)n2)c1 (stereo not drawn) [Compound 952, 6-(3-fluoro-5-isobutoxy-phenyl)-N-(1H-pyrazol-5-ylsulfonyl)-2-(2,3,3-trimethylpyrrolidin-1-yl)pyridine-3-carboxamide] | +++ (“+++” means <3 uM) |
| CC(C)COc1cc(F)cc(-c2ccc(C(=O)NS(=O)(=O)c3cccc(N)n3)c(N3CCCC4(CC4)C3)n2)c1 [Compound 953, N-[(6-amino-2-pyridyl)sulfonyl]-2-(7-azaspiro[2.5]octan-7-yl)-6-(3-fluoro-5-isobutoxy-phenyl)pyridine-3-carboxamide] | +++ (“+++” means <3 uM) |
| CC(C)COc1cccc(-c2ccc(C(=O)NS(=O)(=O)c3cccc(N)n3)c(N3[C@H](C)CC[C@@H]3C)n2)c1 [Compound 957, N-[(6-amino-2-pyridyl)sulfonyl]-2-[(2S,5R)-2,5-dimethylpyrrolidin-1-yl]-6-(3-isobutoxyphenyl)pyridine-3-carboxamide] | +++ (“+++” means <3 uM) |

Next, values leading:

| EC30 | Compound |
| --- | --- |
| +++ (“+++” means <3 uM) | CC(C)Oc1ccc(-c2ccc(C(=O)NS(=O)(=O)c3cccc(N)n3)c(N3C[C@H](C)CC3(C)C)n2)cn1 [Compound 949, N-[(6-amino-2-pyridyl)sulfonyl]-6-(6-isopropoxy-3-pyridyl)-2-[(4R)-2,2,4-trimethylpyrrolidin-1-yl]pyridine-3-carboxamide] |
| +++ (“+++” means <3 uM) | COc1ccc(-c2ccc(C(=O)NS(=O)(=O)c3cccc(N)n3)c(Oc3c(C)cc(C)cc3C)n2)c(OC)c1 [Compound 950, N-[(6-amino-2-pyridyl)sulfonyl]-6-(2,4-dimethoxyphenyl)-2-(2,4,6-trimethylphenoxy)pyridine-3-carboxamide] |
| +++ (“+++” means <3 uM) | CC1CN(c2nc(-c3cccc(NC(C)C)n3)ccc2C(=O)NS(=O)(=O)c2cccc(N)n2)C(C)(C)C1 (stereo not drawn) [Compound 951, N-[(6-amino-2-pyridyl)sulfonyl]-6-[6-(isopropylamino)-2-pyridyl]-2-(2,2,4-trimethylpyrrolidin-1-yl)pyridine-3-carboxamide] |
| +++ (“+++” means <3 uM) | C#CC1CCCN(c2nc(-c3ccc(OC(C)C)nc3)ccc2C(=O)NS(=O)(=O)c2cccc(N)n2)C1 (stereo not drawn) [Compound 954, N-[(6-amino-2-pyridyl)sulfonyl]-2-(3-ethynyl-1-piperidyl)-6-(6-isopropoxy-3-pyridyl)pyridine-3-carboxamide] |
| ++ (“++” means between 3 uM and 10 uM) | CCCOc1cccc(-c2ccc(C(=O)NS(=O)(=O)c3ccc[nH]c3=O)c(Oc3c(C)cc(C)cc3C)n2)c1Cl [Compound 955, 6-(2-chloro-3-propoxy-phenyl)-N-[(2-oxo-1H-pyridin-3-yl)sulfonyl]-2-(2,4,6-trimethylphenoxy)pyridine-3-carboxamide] |
| +++ (“+++” means <3 uM) | COc1ccc(-c2ccc(C(=O)NS(=O)(=O)c3cccc(N)n3)c(Oc3c(C)cc(C)cc3C)n2)c(F)c1 [Compound 956, N-[(6-amino-2-pyridyl)sulfonyl]-6-(2-fluoro-4-methoxy-phenyl)-2-(2,4,6-trimethylphenoxy)pyridine-3-carboxamide] |
